Experimental data published in patent publication US9156872B2, “2′-azido substituted nucleoside derivatives and methods of use thereof for the treatment of viral diseases” (priority 2011, dated 2015).

tested on: HCV replicon cells; test: Cell-based HCV replicon assay (replicon RNA by Taqman real time PCR); settings: Hepatitis C virus, 72 h, HCV replicon 1b, cells harvested on day 3; read-out: 1b EC50

SMILES	EC50
COC(=O)[C@H](C)NP1(=O)OC[C@H]2O[C@@H](n3ccc(N)nc3=O)[C@](C)(N=[N+]=[N-])[C@@H]2O1 (single isomer, unassigned) [Compound 529]	59 µM

same assay, conditions: Hepatitis C virus, 72 h, read-out: 1b EC50

SMILES	EC50
COC(=O)[C@H](C)NP(=O)(OC[C@H]1O[C@@H](n2ccc(=O)[nH]c2=O)[C@](C)(N=[N+]=[N-])[C@@H]1O)Oc1ccc(Cl)cc1 (stereo partly drawn) [Compound 50]	4 µM
C[C@H](NP(=O)(OC[C@H]1O[C@@H](n2ccc(=O)[nH]c2=O)[C@](C)(N=[N+]=[N-])[C@@H]1O)Oc1ccccc1)C(=O)O[C@H](C)c1ccccc1 (single isomer, unassigned) [Compound 302]	24.9 µM
C[C@H](NP(=O)(OC[C@H]1O[C@@H](n2ccc(=O)[nH]c2=O)[C@](C)(N=[N+]=[N-])[C@@H]1O)Oc1ccc(Cl)cc1)C(=O)OCc1ccccc1 (stereo partly drawn) [Compound 304]	60 µM
CCOC(=O)c1cccc(OP(=O)(N[C@@H](C)C(=O)OC)OC[C@H]2O[C@@H](n3ccc(=O)[nH]c3=O)[C@](C)(N=[N+]=[N-])[C@@H]2O)c1 (stereo partly drawn) [Compound 222]	0.01 µM
CCOc1nc(N)nc2c1ncn2[C@@H]1O[C@H](COP(=O)(N[C@@H](C)C(=O)OC(C)C)Oc2ccc(Cl)c(Cl)c2)[C@@H](O)[C@@]1(C)N=[N+]=[N-] (stereo partly drawn) [Compound 348]	5 µM
C[C@H](NP(=O)(OC[C@H]1O[C@@H](n2ccc(=O)[nH]c2=O)[C@](C)(N=[N+]=[N-])[C@@H]1O)Oc1ccccc1)C(=O)OCC(C)(C)C (stereo partly drawn) [Compound 16]	1 µM
CCCCOC(=O)[C@H](C)NP(=O)(OC[C@H]1O[C@@H](n2cnc3c(OCC)nc(N)nc32)[C@](C)(N=[N+]=[N-])[C@@H]1O)Oc1ccc(Cl)c(Cl)c1 (stereo partly drawn) [Compound 370]	10 µM
COC(=O)[C@H](C)NP(=O)(OC[C@H]1O[C@@H](n2ccc(N)nc2=O)[C@](C)(N=[N+]=[N-])[C@@H]1O)Oc1ccc(Cl)cc1 (single isomer, unassigned) [Compound 185]	2.9 µM
CCOC(=O)[C@H](C)NP(=O)(OC[C@H]1O[C@@H](n2cnc3c(OCC)nc(N)nc32)[C@](C)(N=[N+]=[N-])[C@@H]1O)Oc1ccccc1Cl (single isomer, unassigned) [Compound 358]	2.3 µM
CCCCOC(=O)[C@H](C)NP(=O)(OC[C@H]1O[C@@H](n2cnc3c(OCC)nc(N)nc32)[C@](C)(N=[N+]=[N-])[C@@H]1O)Oc1cccc2ccccc12 (stereo partly drawn) [Compound 12]	1.3 µM

same assay, conditions: read-out: 1b EC50

SMILES	EC50
COc1nc(N)nc2c1ncn2[C@@H]1O[C@H](COP(=O)(N[C@@H](C)C(=O)OC2CCCCC2)Oc2ccc(F)cc2)[C@@H](O)[C@@]1(C)N=[N+]=[N-] (single isomer, unassigned) [Compound 264]	0.2 µM
C[C@H](NP(=O)(OC[C@H]1O[C@@H](n2ccc(=O)[nH]c2=O)[C@](C)(N=[N+]=[N-])[C@@H]1O)Oc1ccc(F)cc1)C(=O)OC1CCCCC1 (single isomer, unassigned) [Compound 232]	> 100 µM
CC(C)COC(=O)[C@H](C)NP(=O)(OC[C@H]1O[C@@H](n2ccc(=O)[nH]c2=O)[C@](C)(N=[N+]=[N-])[C@@H]1O)Oc1ccccc1 (stereo partly drawn) [Compound 38]	0.3 µM
CCOC(=O)[C@H](C)NP(=O)(OC[C@H]1O[C@@H](n2ccc(N)nc2=O)[C@](C)(N=[N+]=[N-])[C@@H]1O)Oc1ccccc1Cl (stereo partly drawn) [Compound 184]	5.7 µM
CCOC(=O)[C@H](C)NP(=O)(OC[C@H]1O[C@@H](n2cnc3c(OC)nc(N)nc32)[C@](C)(N=[N+]=[N-])[C@@H]1O)Oc1ccc(Cl)cc1 (single isomer, unassigned) [Compound 289]	0.7 µM
CCOC(=O)[C@H](C)NP(=O)(OC[C@H]1O[C@@H](n2ccc(=O)[nH]c2=O)[C@](C)(N=[N+]=[N-])[C@@H]1O)Oc1ccc(Cl)cc1 (stereo partly drawn) [Compound 323]	5.3 µM
COC(=O)[C@H](C)NP(=O)(OC[C@H]1O[C@@H](n2ccc(N)nc2=O)[C@](C)(N=[N+]=[N-])[C@@H]1O)Oc1ccc(Cl)c(Cl)c1 (single isomer, unassigned) [Compound 194]	35 µM
